Test results taken from patent publication US10647713B2 (Nimbus Lakshmi, Inc., priority 2016, dated 2020).

Each molecule was assayed against human TYK2 (JH2domain-pseudokinase) (Homo sapiens (Human), UniProt P29597) (assay: TYK2 JH2 Domain Binding Assay (KINOMEscan, DiscoveRx)). Conditions: 11-point dilution, duplicate.
Outline: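 TYK2 JH2 (G556–D888)–NFkB DBD fusion, DNA-tagged, from HEK293 extracts (<0.1 nM) competed against immobilised biotinylated ligand for 1 h at room temperature, 0.9% DMSO. Bead-retained kinase quantified by qPCR; Kd from 11-point 3-fold series (top 30,000 nM, duplicate), Hill fit with slope −1.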

Chain of human TYK2 (JH2domain-pseudokinase) (P29597 556-888): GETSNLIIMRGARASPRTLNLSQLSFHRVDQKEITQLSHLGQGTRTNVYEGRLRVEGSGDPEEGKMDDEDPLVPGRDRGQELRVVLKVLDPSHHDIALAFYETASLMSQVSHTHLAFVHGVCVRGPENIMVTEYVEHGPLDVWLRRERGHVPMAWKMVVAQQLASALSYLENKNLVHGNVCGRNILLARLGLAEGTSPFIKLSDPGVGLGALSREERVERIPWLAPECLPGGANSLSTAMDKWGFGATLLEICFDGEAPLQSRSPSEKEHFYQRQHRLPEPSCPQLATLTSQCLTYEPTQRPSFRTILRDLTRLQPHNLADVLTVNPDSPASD

| SMILES | Kd [nM] |
| --- | --- |
| Cc1cnc(-c2ccc(Nc3cc(NC(=O)C4CC4)nc4[nH]c(C(F)F)nc34)c(N(C)S(C)(=O)=O)c2)n1C [I-169, N-(2-(difluoromethyl)-7-((4-(1,5-dimethyl-1H-imidazol-2-yl)-2-(N-methylmethylsulfonamido)phenyl)amino)-3H-imidazo[4,5-b]pyridin-5-yl)cyclopropanecarboxamide] | 0.1 to 0.5 |
| Cc1nc2c(Nc3ccc(-c4ncc(C)n4C)cc3N(C)S(C)(=O)=O)cc(NC(=O)C3CC3)nc2[nH]1 [I-170, N-(7-((4-(1,5-dimethyl-1H-imidazol-2-yl)-2-(N-methylmethyl-sulfonamido)phenyl)amino)-2-methyl-3H-imidazo[4,5-b]pyridin-5-yl)cyclopropanecarboxamide] | 0.1 to 0.5 |
| CN(c1cc(-c2ccn(C)n2)ccc1Nc1cc(NC(=O)C2CC2)nc2[nH]c(C(F)F)nc12)S(C)(=O)=O [I-171, N-(2-(difluoromethyl)-7-((4-(1-methyl-1H-pyrazol-3-yl)-2-(N-methylmethylsulfonamido)phenyl)amino)-3H-imidazo[4,5-b]pyridin-5-yl)cyclopropaneCarboxamide] | 0.1 to 0.5 |
| COc1c(Nc2cc(NC(=O)C3CC3)nc3[nH]c(C(F)(F)F)nc23)cccc1-c1nnn(C)n1 [I-172, N-(7-((2-methoxy-3-(2-methyl-2H-tetrazol-5-yl)phenyl)amino)-2-(trifluoromethyl)-3H-imidazo[4,5-b]pyridin-5-yl)cyclopropanecarboxamide] | > 10 |
| Cc1nc(-c2ccc(Nc3cc(Nc4cnc(C)c(C)n4)nc4[nH]c(C)nc34)c(N(C)S(C)(=O)=O)c2)n(C)n1 [I-173, N-(5-(1,3-dimethyl-1H-1,2,4-triazol-5-yl)-2-((5-((5,6-dimethylpyrazin-2-yl)amino)-2-methyl-3H-imidazo[4,5-b]pyridin-7-yl)amino)phenyl)-N-methylmethanesulfonamide] | > 10 |
| Cc1nc2c(Nc3ccc(-c4ccn(C)n4)cc3N(C)S(C)(=O)=O)cc(NC(=O)C3CC3)nc2[nH]1 [I-174, N-(2-methyl-7-((4-(1-methyl-1H-pyrazol-3-yl)-2-(N-methyl-methysulfonamido)phenyl)amino)-3H-imidazo[4,5-b]pyridin-5-yl)cyclopropanecarboxamide] | 0.1 to 0.5 |
| Cc1cn(C)c(-c2ccc(Nc3cc(NC(=O)C4CC4)nc4[nH]c(C(F)F)nc34)c(N(C)S(C)(=O)=O)c2)n1 [I-175, N-(2-(difluoromethyl)-7-((4-(1,4-dimethyl-1H-imidazol-2-yl)-2-(N-methylmethylsulfonamido)phenyl)amino)-3H-imidazo[4,5-b]pyridin-5-yl)cyclopropane-Carboxamide] | 0.5 to 1 |
| Cc1cn(C)c(-c2ccc(Nc3cc(NC(=O)C4CC4)nc4[nH]c(C)nc34)c(N(C)S(C)(=O)=O)c2)n1 [I-176, N-(7-((4-(1,4-dimethyl-1H-imidazol-2-yl)-2-(N-methylmethyl-sulfonamido)phenyl)amino)-2-methyl-3H-imidazo[4,5-b]pyridin-5-yl)cyclopropane-carboxamide] | 0.5 to 1 |
| Cc1nc2c(Nc3ccccc3S(C)(=O)=O)cc(NC(=O)C3CC3)nc2[nH]1 [I-177, N-(2-methyl-7-((2-(methylsulfonyl)phenyl)amino)-3H-imidazo[4,5-b]pyridin-5-yl)cyclopropanecarboxamide] | 0.1 to 0.5 |
| CN(c1cc(C(F)F)ccc1Nc1cc(Nc2cccc(C#N)n2)nc2[nH]c(C(F)F)nc12)S(C)(=O)=O [I-178, N-(2-((5-((6-cyanopyridin-2-yl)amino)-2-(difluoromethyl)-3H-imidazo[4,5-b]pyridin-7-yl)amino)-5-(difluoromethyl)phenyl)-N-methylmethanesulfonamide] | 0.1 to 0.5 |
| CN(c1ccccc1Nc1cc(Nc2cccc(C#N)n2)nc2[nH]c(C(F)F)nc12)S(=O)(=O)C1CC1 [I-179] | 0.1 to 0.5 |
| Cc1nc2c(Nc3ccccc3N(C)S(=O)(=O)C3CC3)cc(Nc3cccc(C#N)n3)nc2[nH]1 [I-180, N-(2-((5-((6-cyanopyridin-2-yl)amino)-2-methyl-3H-imidazo[4,5-b]pyridin-7-yl)amino)phenyl)-N-methylcyclopropanesulfonamide] | 0.1 to 0.5 |
| CCS(=O)(=O)N(C)c1ccccc1Nc1cc(Nc2cccc(C#N)n2)nc2[nH]c(C)nc12 [I-181, N-(2-((5-((6-cyanopyridin-2-yl)amino)-2-methyl-3H-imidazo[4,5-b]pyridin-7-yl)amino)phenyl)-N-methylethanesulfonamide] | 0.1 to 0.5 |
| CN(c1cc(C2CCOCC2)ccc1Nc1cc(NC(=O)C2CC2)nc2[nH]c(C(F)F)nc12)S(C)(=O)=O [I-182, N-(2-(difluoromethyl)-7-((2-(N-methylmethylsulfonamido)-4-(tetrahydro-2H-pyran-4-yl)phenyl)amino)-3H-imidazo[4,5-b]pyridin-5-yl)cyclopropanecarboxamide] | 0.1 to 0.5 |
| CN(c1cc(C2CC2)ccc1Nc1cc(NC(=O)C2CC2)nc2[nH]c(C(F)F)nc12)S(C)(=O)=O [I-183, N-(7-((4-cyclopropyl-2-(N-methylmethylsulfonamido)phenyl)amino)-2-(difluoromethyl)-3H-imidazo[4,5-b]pyridin-5-yl)cyclopropanecarboxamide] | 0.1 to 0.5 |
| Cc1nc2c(Nc3ccc(C4CC4)cc3N(C)S(C)(=O)=O)cc(NC(=O)C3CC3)nc2[nH]1 [I-184, N-(7-((4-cyclopropyl-2-(N-methylmethylsulfonamido)phenyl)amino)-2-methyl-3H-imidazo[4,5-b]pyridin-5-yl)cyclopropanecarboxamidee] | 0.1 to 0.5 |
| Cc1ccc(Nc2cc(Nc3ccc(Cl)cc3S(C)(=O)=O)c3nc(C(F)F)[nH]c3n2)nn1 [I-185, N7-(4-chloro-2-(methylsulfonyl)phenyl)-2-(difluoromethyl)-N5-(6-methylpyridazin-3-yl)-3H-imidazo[4,5-b]pyridine-5,7-diamine] | 0.1 to 0.5 |
| Cc1nc2c(Nc3ccc(Cl)cc3S(C)(=O)=O)cc(Nc3cccc(C#N)n3)nc2[nH]1 [I-186, 6-((7-((4-chloro-2-(methylsulfonyl)phenyl)amino)-2-methyl-3H-imidazo[4,5-b]pyridin-5-yl)amino)picolinonitrile] | 0.1 to 0.5 |
| Cc1cc(-c2ccc(Nc3cc(NC(=O)C4CC4)nc4[nH]c(C(F)F)nc34)c(N(C)S(C)(=O)=O)c2)nn1C [I-187, N-(2-(difluoromethyl)-7-((4-(1,5-dimethyl-1H-pyrazol-3-yl)-2-(N-methylmethylsulfonamido)phenyl)amino)-3H-imidazo[4,5-b]pyridin-5-yl)cyclopropanecarboxamide] | 0.1 to 0.5 |
| Cc1nc2c(Nc3ccc(C4CC4)cc3S(C)(=O)=O)cc(NC(=O)C3CC3)nc2[nH]1 [I-188] | 0.1 to 0.5 |
| Cc1ccc(Nc2cc(Nc3ccc(Cl)cc3S(C)(=O)=O)c3nc(C)[nH]c3n2)nn1 [I-189, N7-(4-chloro-2-(methylsulfonyl)phenyl)-2-methyl-N5-(6-methylpyridazin-3-yl)-3H-imidazo[4,5-b]pyridine-5,7-diamine] | 0.1 to 0.5 |
| CCS(=O)(=O)N(C)c1ccccc1Nc1cc(Nc2cccc(C#N)n2)nc2[nH]c(C(F)F)nc12 [I-190, N-(2-((5-((6-cyanopyridin-2-yl)amino)-2-(difluoromethyl)-3H-imidazo[4,5-b]pyridin-7-yl)amino)phenyl)-N-methylethanesulfonamide] | > 10 |
| CS(=O)(=O)c1cc(Cl)ccc1Nc1cc(Nc2cccc(C#N)n2)nc2[nH]c(C(F)F)nc12 [I-191, 6-((7-((4-chloro-2-(methylsulfonyl)phenyl)amino)-2-(difluoromethyl)-3H-imidazo[4,5-b]pyridin-5-yl)amino)picolinonitrile] | 0.5 to 1 |
| Cc1nc2c(Nc3ccc(Cl)cc3S(C)(=O)=O)cc(NC(=O)[C@H]3C[C@H]3F)nc2[nH]1 [I-192, (1R,2R)—N-(7-((4-chloro-2-(methylsulfonyl)phenyl)amino)-2-methyl-3H-imidazo[4,5-b]pyridin-5-yl)-2-fluorocyclopropane-1-carboxamide] | 1 to 10 |
| Cc1nc2c(Nc3ccc(-c4cc(C)n(C)n4)cc3N(C)S(C)(=O)=O)cc(NC(=O)C3CC3)nc2[nH]1 [I-193, N-(7-((4-(1,5-dimethyl-1H-pyrazol-3-yl)-2-(N-methylmethylsulfonamido)phenyl)amino)-2-methyl-3H-imidazo[4,5-b]pyridin-5-yl)cyclopropanecarboxamide] | > 10 |
| Cc1nc2c(Nc3ccc(-c4cn(C)nc4C)cc3N(C)S(C)(=O)=O)cc(NC(=O)C3CC3)nc2[nH]1 [I-194, N-(7-((4-(1,3-dimethyl-1H-pyrazol-4-yl)-2-(N-methylmethylsulfonamido)phenyl)amino)-2-methyl-3H-imidazo[4,5-b]pyridin-5-yl)cyclopropanecarboxamide] | > 10 |
| Cc1nc2c(Nc3ccc(C(F)F)cc3N(C)S(C)(=O)=O)cc(Nc3cccc(C#N)n3)nc2[nH]1 [I-195, N-(2-((5-((6-cyanopyridin-2-yl)amino)-2-methyl-3H-imidazo[4,5-b]pyridin-7-yl)amino)-5-(difluoromethyl)phenyl)-N-methylmethanesulfonamide] | 0.1 to 0.5 |
| Cc1nc2c(Nc3ccc(C4CCOCC4)cc3N(C)S(C)(=O)=O)cc(NC(=O)C3CC3)nc2[nH]1 [I-196, N-(2-methyl-7-((2-(N-methylmethylsulfonamido)-4-(tetrahydro-2H-pyran-4-yl)phenyl)amino)-3H-imidazo[4,5-b]pyridin-5-yl)cyclopropanecarboxamide] | 0.5 to 1 |
| Cc1nn(C)cc1-c1ccc(Nc2cc(NC(=O)C3CC3)nc3[nH]c(C(F)F)nc23)c(N(C)S(C)(=O)=O)c1 [I-197, N-(2-(difluoromethyl)-7-((4-(1,3-dimethyl-1H-pyrazol-4-yl)-2-(N-methylmethylsulfonamido)phenyl)amino)-3H-imidazo[4,5-b]pyridin-5-yl)cyclopropanecarboxamide] | 0.1 to 0.5 |
| Cc1c(-c2ccc(Nc3cc(NC(=O)C4CC4)nc4[nH]c(C(F)F)nc34)c(N(C)S(C)(=O)=O)c2)cnn1C [I-198, N N-(2-(difluoromethyl)-7-((4-(1,5-dimethyl-1H-pyrazol-4-yl)-2-(N-methylmethylsulfonamido)phenyl)amino)-3H-imidazo[4,5-b]pyridin-5-yl)cyclopropanecarboxamide] | < 0.1 |
